Here are results for one substance from patent publication US20210071180A1, “MICRORNA 584-5P COMPOSITIONS AND METHODS FOR TREATING CANCER” (BOARD OF REGENTS, THE UNIVERSY OF TEXAS SYSTEM, priority 2018, published 2021).

Format in all cases: cell-based
In one data set the test system is HDAC1. The data set can be described thus: qPCR and Western blot of HDAC1 in MB cells. As to conditions: transcript and protein levels, all cell lines tested.
The next data set deals with eIF4E1. The data set is described as follows: Western blot analysis of eIF4E1. As to conditions: MB cells. As to the method:
Next, it was determined whether miR-584-5p and its target genes, eIF4E3 and HDAC1, show reciprocal expression pattern in MB. […] In FIG. 16A, data represent Log 2 ratio tumor/cerebellum control. Data mined from GSE42657. In FIG. 16B, data represent Log 2 ratio tumor/cerebellum control. Data mined from GSE28245. To further confirm those results, miR-584-5p expression in MB patient-derived xenografts was examined. […] The p-values were calculated using one-way ANOVA followed by Sidak's multiple-comparisons test. Error bars represent mean±SEM. To further confirm the specificity of miR-584-5p-eIF4E3 signaling axis in MB, the expression of eIF4E1, which acts as an oncogene in several cancers (Bhat, M. et al. Nat Rev Drug Discov 14, 261-278, (2015)), was tested in miR-584-5p treated cells.

The test system of a further data set is 3′-UTR of eIF4E3. The data set is described as follows: Dual luciferase 3′-UTR reporter assay (eIF4E3). As to conditions: miR-584-5p mimic in comparison with scrambled. Here is the method: Dual luciferase assay. Wild-type or mutant 3′-UTR segments of the eIF4E3 and HDAC1 gene were cloned downstream of the luciferase gene in pGL3-promoter vector at the SacI and SpeI restriction sites. HEK293 cells were cotransfected with Renilla luciferase vector (pRLnull 380) and firefly luciferase vector containing pGL3-wt-eIF4E3; pGL3-mut-eIF4E3; or pGL3-wt-HDAC1, pGL3-mut-HDAC1, or pGL3 overnight and incubated in fresh complete medium for an additional 48 hours after transfection. Cells were then transfected with miRNA mimic (Invitrogen) for 24 hours. Next, cells were harvested with 1× passive lysis buffer (Promega) and luciferase activity was read using GLOMAX 20/20 luminometer (Promega).
Data are z-transformed. The cutoff criteria for each gene are fold change >2, sample intensity >10, and p-value <0.05. […] To validate the gene expression analysis and target prediction results, it was determined whether miR-584-5p reduced HDAC1/eIF4E3 expression by binding to their 3′-untranslated regions (3′-UTRs). […] Also shown are the portion of the miR-584-5p sequence (SEQ ID NO: 15; UAUGGUU) that binds to the wild-type 3′UTR and seed sequence mutant (SEQ ID NO: 16; […], top panel; and SEQ ID NO: 17; […]; bottom panel). Also shown is miR-584-5p seed sequence mutated sequences. […] The p-values were calculated using standard Student t-tests. […] The p-values were calculated using standard Student t-tests.

The next data set concerns MB cells. The data set is described as follows: IR dose-response, alamarBlue cell viability assay. As to conditions: IR for 24 hours, normalized to 0 Gy. An excerpt:
FIG. 13C-D show representative immunofluorescence images showing 53BP1 foci in D556Med cells transfected with miR-NC or miR-584-5p mimic (C) or scramble-siRNA or eIF4E3/HDAC1-siRNAs (D) and treated with or without 10 Gy of IR.
VCR is routinely used during and after radiation therapy to treat MB patients (Packer, R. J. et al. J Neurosurg 74, 433-440, (1991)), mainly because microtubule-targeting agents such as VCR enhances the toxic effects of DNA-damaging agents, including radiation (Poruchynsky, M. S. et al. Proc Natl Acad Sci USA 112, 1571-1576, (2015); and Oehler, C. et al. Neuro Oncol 13, 1000-1010, doi:10.1093/neuonc/nor069 (2011)). Moreover, cells in G2/M phase are the most sensitive to IR (Pawlik, T. M. & Keyomarsi, K. Int J Radiat Oncol Biol Phys 59, 928-942, (2004)). […] All values were normalized to 0 Gy. […] Error bars represent mean±SEM. Next, it was determined whether eIF4E3 or HDAC1 may mediate miR-584-5p's IR response. […] All values were normalized to 0 Gy. […] Error bars represent mean±SEM.

Take “miR-584-5p: microRNA mimic; nucleotide sequence UUAUGGUUUGCCUGGGACUGAG (SEQ ID NO: 1); purchased from Thermofisher (chemistry not given here)”: the “expression of HDAC1” value in the data set on HDAC1 is “significantly reduced expression”. In addition, in the data set on eIF4E1, the eIF4E1 levels result is “did not show any change”. Besides, in the data set with 3′-UTR of eIF4E3, the “luciferase activity, eIF4E3 3′-UTR with mutated miR-584-5p binding sites” value was “no change in luciferase activity” and the “luciferase activity, wild-type eIF4E3 3′-UTR construct” value was “significantly reduced”. In addition, the “sensitivity to IR relative to scrambled-transfected cells” value in the data set on MB cells is given as 10 fold.
